In patent US9757364B2, “Naphthyridine derivative compounds” (ASTEX THERAPEUTICS LIMITED, priority 2011, dated 2017):
Like-named read-outs stand apart in the source and are kept apart here.

What was measured:
Test in all cases: cells
[1] = tested on: Ba/F3-Flt3-transfected cells; settings: read-out: BAF3-FLT3 (MIN IL3) pIC50 (converted)
Procedure: Ba/F3-Flt3 (Minus IL3 or Plus IL3) (Cellular Proliferation Assay)
(§1) Cells were put in an incubator at 37° C. and 5% CO2.
(§2) As a counterscreen the same experiment was performed in the presence of 10 ng/ml murine IL3.

[2] = tested on: Ba/F3-KDR-transfected cells
Procedure: Ba/F3-KDR (Minus IL3 or Plus IL3) (Cellular Proliferation Assay)
as §1, §2

[3] = tested on: Ba/F3-FGFR1-transfected cells
Procedure: Ba/F3-FGFR1 (Minus IL3 or Plus IL3) (Cellular Proliferation Assay)
as §1, §2

[4] = read-out: BAF3-KDR (MIN IL3) pIC50 (converted)
[5] = read-out: BAF3-KDR (PLUS IL3) pIC50 (converted)

## COc1cc(OC)cc(N(CCO)c2ccc3ncc(-c4cnn(C)c4)cc3n2)c1 [Compound 1]
[1]; 24 h
  IC50: 8.91 µM

## COc1cc(OC)cc(N(CCCO)c2ccc3ncc(-c4cnn(C)c4)cc3n2)c1 [Compound 2]
[1]; 24 h
  IC50: > 10 µM

## COCCN(c1cc(OC)cc(OC)c1)c1ccc2ncc(-c3cnn(C)c3)cc2n1 [Compound 3]
[1]; 24 h
  IC50: > 10 µM

## COc1cc(OC)cc(N(CCNC(C)C)c2ccc3ncc(-c4cnn(C)c4)cc3n2)c1 [Compound 4]
[1]; 24 h
  IC50: 7.94 µM

## COc1cc(/N=c2\ccc3ncc(-c4cnn(C)c4)cc3n2CCNC(C)C)cc(OC)c1 [Compound 5]
[1]; 24 h
  IC50: > 10 µM

## COc1cc(OC)cc(N(CCN(CCNC(C)C)C(C)C)c2ccc3ncc(-c4cnn(C)c4)cc3n2)c1 [Compound 6]
[1]; 24 h
  IC50: 5.01 µM

## COc1cc(OC)cc(N(Cc2nccn2S(=O)(=O)N(C)C)c2ccc3ncc(-c4cnn(C)c4)cc3n2)c1 [Compound 7]
[1]; 24 h
  IC50: > 10 µM

## C#CCN(c1cc(OC)cc(OC)c1)c1ccc2ncc(-c3cnn(C)c3)cc2n1 [Compound 8]
[1]; 24 h
  IC50: > 10 µM

## COc1cc(OC)cc(N(Cc2ncc[nH]2)c2ccc3ncc(-c4cnn(C)c4)cc3n2)c1 [Compound 10]
[1]; 24 h
  IC50: > 10 µM

## COc1cc(OC)c(F)c(N(Cc2ncccn2)c2ccc3ncc(-c4cnn(C)c4)cc3n2)c1F [Compound 14]
[1]
  IC50: 7.76 µM

## COc1cc(OC)c(F)c(N(CCCO)c2ccc3ncc(-c4cnn(C)c4)cc3n2)c1F [Compound 22]
[1]
  IC50: 3.89 µM

## COc1cc(OC)c(F)c(N(Cc2ncccn2)c2ccc3ncc(-c4cnn(C)c4)cc3n2)c1 [Compound 27]
[1]
  IC50: > 10 µM

## COc1cc(OC)c(F)c(N(Cc2nccn2S(=O)(=O)N(C)C)c2ccc3ncc(-c4cnn(C)c4)cc3n2)c1F [Compound 64]
[1]
  IC50: 2.45 µM

## COc1cc(OC)c(F)c(N(Cc2ncc[nH]2)c2ccc3ncc(-c4cnn(C)c4)cc3n2)c1F [Compound 65]
[1]
  IC50: 3.55 µM

## COc1cc(OC)cc(N(Cc2nccn2S(=O)(=O)N(C)C)c2cc3cc(-c4cnn(C)c4)cnc3cn2)c1 [Compound 66]
[2]; [4]
  IC50: > 10 µM
[2]; [5]
  IC50: > 10 µM

## COc1cc(OC)cc(N(Cc2ncc[nH]2)c2cc3cc(-c4cnn(C)c4)cnc3cn2)c1 [Compound 67]
[2]; [4]
  IC50: > 10 µM
[2]; [5]
  IC50: > 10 µM

## COc1cc(OC)cc(N(CCNC(C)C)c2cc3cc(-c4cnn(C)c4)cnc3cn2)c1 [Compound 68]
[2]; [4]
  IC50: > 10 µM
[2]; [5]
  IC50: > 10 µM

## COCCN(c1cc(OC)cc(OC)c1)c1cc2cc(-c3cnn(C)c3)cnc2cn1 [Compound 69]
[3]; read-out: BAF3-FGFR1 (MIN IL3) pIC50 (converted)
  IC50: 8.13 µM
[3]; read-out: BAF3-FGFR1 (PLUS IL3) pIC50 (converted)
  IC50: > 10 µM
[2]; [4]
  IC50: > 10 µM
[2]; [5]
  IC50: > 10 µM

## CNCCN(c1cc2cc(-c3cnn(C)c3)cnc2cn1)c1cc(OC)cc(OC)c1F [Compound 73]
[2]; [4]
  IC50: > 10 µM
[2]; [5]
  IC50: > 10 µM

## COc1cc(OC)c(F)c(N(CCCO)c2cc3cc(-c4cnn(C)c4)cnc3cn2)c1 [Compound 75]
[2]; [4]
  IC50: > 10 µM
[2]; [5]
  IC50: > 10 µM

## COc1cc(OC)c(F)c(N(Cc2nccn2S(=O)(=O)N(C)C)c2cc3cc(-c4cnn(C)c4)cnc3cn2)c1 [Compound 76]
[2]; [4]
  IC50: > 10 µM
[2]; [5]
  IC50: > 10 µM

## COc1cc(OC)c(F)c(N(Cc2ncc[nH]2)c2cc3cc(-c4cnn(C)c4)cnc3cn2)c1 [Compound 77]
[2]; [4]
  IC50: > 10 µM
[2]; [5]
  IC50: > 10 µM
